Measured values taken from ChEMBL document CHEMBL4043159, “Structural evidence for the DPPH radical-scavenging mechanism of 2-O-α-d-glucopyranosyl-l-ascorbic acid” (Bioorg Med Chem, 2017).
Active and inactive are the calls of the source. The calls are words filed in the database; no cut-off is given here.

What was measured:
Type in all cases: functional
[1] = Antioxidant activity assessed as DPPH free radical scavenging activity by measuring radical-scavenging activity factor (moles of radicals scavenged by each mol of antioxidant) at 20 uM measured at 15 mins by HPLC
[2] = Antioxidant activity assessed as time duration for DPPH free radical scavenging activity at 20 uM by HPLC
[3] = Antioxidant activity assessed as DPPH free radical scavenging activity by measuring radical-scavenging activity factor (moles of radicals scavenged by each mol of antioxidant) at 20 uM measured at 120 mins by HPLC
[4] = Antioxidant activity assessed as DPPH free radical scavenging activity by measuring radical-scavenging activity factor (moles of radicals scavenged by each mol of antioxidant) at 20 uM measured at 10 mins by HPLC
[5] = Antioxidant activity assessed as DPPH free radical scavenging activity by measuring radical-scavenging activity factor (moles of radicals scavenged by each mol of antioxidant) at 20 uM measured at 30 mins by HPLC
[6] = Antioxidant activity assessed as DPPH free radical scavenging activity by measuring retention time of AA-2G-DPPH product at 20 uM incubated for 30 mins by HPLC method
[7] = Antioxidant activity assessed as DPPH free radical scavenging activity by measuring amount of compound consumed at 200 uM measured at 10 mins by HPLC
[8] = Antioxidant activity assessed as DPPH free radical scavenging activity by measuring AA-2G-DPPH adducts formation at 5 mM incubated for 10 to 30 mins by 1H NMR spectroscopy
[9] = Antioxidant activity assessed as DPPH free radical scavenging activity by measuring AA-2G-DPPH product formation at 0.25 to 0.75 mM incubated for 30 mins by HPLC method
[10] = Antioxidant activity assessed as DPPH free radical scavenging activity by measuring AA-2G-DPPH adducts level at 200 uM measured at 10 mins by HPLC
[11] = Antioxidant activity assessed as DPPH free radical scavenging activity by measuring AA-2G-DPPH adducts formation at 200 uM measured within 10 mins by HPLC

O=C1O[C@H]([C@@H](O)CO)C(O)=C1O
scavenging factor [1]: 1.8 mol/mol | TIME [2]: < 0.0167 h | scavenging factor [3]: 1.9 mol/mol | scavenging factor [4]: 1.8 mol/mol | scavenging factor [5]: 1.9 mol/mol | Activity [6]: inactive

O=C1O[C@H]([C@@H](O)CO)C(O)=C1O[C@H]1O[C@H](CO)[C@@H](O)[C@H](O)[C@H]1O
scavenging factor [1]: 1.7 mol/mol | TIME [2]: 2 h | scavenging factor [3]: 2.7 mol/mol | scavenging factor [4]: 1.5 mol/mol | Activity [7]: 190 µM | Activity [8]: Active | scavenging factor [5]: 2.1 mol/mol | Activity [9]: Dose-dependent effect | Activity [10]: 190 µM | Activity [11]: Active | Retention time [6]: 15 min
